Data as given in article PMC8763382, “2-Sulfonylpyrimidines as Privileged Warheads for the Development of S. aureus Sortase A Inhibitors” (Frontiers in Molecular Biosciences, 2022).
Values joined by “and” are separate entries in the source; they are usually repeats but may differ in a detail not shown here. Equal values may be shown once.

What was measured:
S. aureus SrtA = target: T1, S. aureus SrtA (Staphylococcus aureus, UniProt Q2FV99); assay: fluorometric enzyme assay of SrtA transpeptidation (Abz-LPETG-Dap(Dnp)-OH substrate); format: biochemical; conditions: for k inact: maximum inactivation rate; for k inact / KI (inactivation) / k 2nd: Tris pH 7.50, n. i. = <20% inhibition at 100 µM; for KI (inactivation): read-out: KI, dissociation constant of the reversible enzyme-inhibitor complex; for k 2nd: second-order rate of inhibition; for SrtA inhibition (in words): fluorometric enzyme assay, inhibitor concentration 100 µM; for inhibition at 100 µM: read-out: SrtA inhibition relative to the DMSO control
T1 construct: His tag (inferred from IMAC on a HisTrap column); made in house; host or cells: E. coli BL21 Gold (DE3)
Protocol: To evaluate the inhibition potency of the parent sulfonylpyrimidine 4, this compound was tested by means of a fluorometric enzyme assay with recombinantly expressed S. aureus SrtA ([Schmohl et al., 2017b]) and Abz-LPETG-Dap (Dnp)-OH as substrate. […] To verify the irreversible mode of inhibition, we determined the maximum inactivation rate k inact, the dissociation constant of the reversible enzyme-inhibitor complex KI, and the second-order rate of inhibition k 2nd. For compound 4, a k inact = 0.00065 s^−1 was found, which is very low compared to other covalent SrtA inhibitors ([Chan et al., 2017]; [Barthels et al., 2020]; [Jaudzems et al., 2020]).
Inhibition assays of S. aureus SrtA transpeptidation reactions were performed as described previously ([Barthels et al., 2020]). Briefly, the recombinantly expressed SrtA (final concentration: 1 µM) was incubated in assay buffer (50 mM Tris, 150 mM NaCl, 5 mM CaCl2, pH 7.50) with 25 µM of the FRET-pair substrate Abz-LPETG-Dap (Dnp)-OH (Genscript, Piscataway, New Jersey) and 0.5 mM tetraglycine (Sigma Aldrich, St. Louis, Missouri). Inhibitors were added from DMSO stocks. Reactions were initiated by addition of SrtA and monitored for 30 min at 30°C in an Infinite M200 Pro plate reader with λex 320 nm/λem 430 nm (Tecan, Männedorf, Switzerland). Three technical replicates were carried out for each inhibitor in black flat-bottom 96-well plates (Greiner bio-one, Kremsmünster, Austria). The enzyme kinetics of irreversible SrtA inactivation were analyzed as described previously ([Barthels et al., 2020]).

[1] = target: T2, human cathepsin B (hCatB) (Homo sapiens, UniProt P07858); assay: protease selectivity panel, fluorometric assay cathepsin B; format: biochemical; conditions: 100 µM inhibitor; read-out: CatB inhibition relative to the DMSO control
T2 construct: purchased Calbiochem, Merck Millipore
Protocol: (§1) To investigate how these sulfonylpyrimidines affect the activity of other cysteine and serine proteases, a selectivity panel was constructed from a matrix of 6 diverse sulfonylpyrimidines and 6 different proteases. The compounds were assayed at a final compound concentration of 100 µM for the cysteine proteases human cathepsin B (hCatB), cathepsin L (hCatL), and T. brucei rhodesain (Rd). Furthermore, the serine proteases NS2B-NS3 from Zika virus (ZIKV), the homologous protease from Dengue virus (DENV), and the human protease urokinase plasminogen activator (uPA) were tested for their susceptibility.
(§2) Fluorometric assays of the ZIKV/DENV NS2B/NS3 protease were performed as described previously ([Maus et al., 2021]). The assay was carried out in triplicates at 25°C in assay buffer (50 mM Tris, pH 9.0, 20% glycerol (v/v), and 1 mM CHAPS). 100 µM Boc-Gly-Arg-Arg-AMC (Bachem, Bubendorf, Switzerland) was used as a substrate. Fluorometric assays for cathepsin B, cathepsin L, and rhodesain (Calbiochem, Merck Millipore, Burlington, Massachusetts) were performed as described previously ([Klein et al., 2020a]). Cbz-Phe-Arg-AMC (Bachem, Bubendorf, Switzerland) was used as substrate (100 μM for cathepsin B, 6.5 μM for cathepsin L, and 10 µM for rhodesain). Fluorometric assays for urokinase plasminogen activator were performed as described previously ([Angelini et al., 2012]). 240 µM Cbz-Gly-Arg-Arg-AMC (Bachem, Bubendorf, Switzerland) was used as a substrate.

[2] = target: human protease urokinase plasminogen activator (uPA) (Homo sapiens, UniProt P00749); assay: protease selectivity panel, fluorometric assay urokinase plasminogen activator; format: biochemical; conditions: 100 µM inhibitor; n. i. = no inhibition at 100 µM; read-out: uPA inhibition relative to the DMSO control
Protocol: as §1, §2

cathepsin L (hCatL) = target: T3, cathepsin L (hCatL) (Homo sapiens, UniProt P07711); assay: protease selectivity panel, fluorometric assay cathepsin L; format: biochemical; conditions: 100 µM inhibitor; read-out: CatL inhibition relative to the DMSO control
T3 construct: purchased Calbiochem, Merck Millipore
Protocol: as §1, §2

[3] = target: T4, NS2B-NS3 from Zika virus (ZIKV) (Zika virus, UniProt Q32ZE1); assay: protease selectivity panel, fluorometric assay ZIKV NS2B/NS3 protease; format: biochemical; conditions: 100 µM inhibitor; read-out: ZIKV inhibition relative to the DMSO control
T4 construct: The ZIKV NS2B/NS3 protease is a serine protease and contains two non-catalytic cysteine residues
Protocol: as §1, §2

DENV NS2B/NS3 protease = DENV NS2B/NS3 protease (Dengue virus type 2, UniProt P29990); assay: protease selectivity panel, fluorometric assay DENV NS2B/NS3 protease; format: biochemical; conditions: 100 µM inhibitor; n. i. = no inhibition at 100 µM; read-out: DENV inhibition relative to the DMSO control
Protocol: as §1, §2

T. brucei rhodesain (Rd) = target: T5, T. brucei rhodesain (Rd) (Trypanosoma brucei rhodesiense, UniProt Q95PM0); assay: protease selectivity panel, fluorometric assay rhodesain; format: biochemical; conditions: 100 µM inhibitor; n. i. = no inhibition at 100 µM; read-out: Rd inhibition relative to the DMSO control
T5 construct: purchased Calbiochem, Merck Millipore
Protocol: as §1, §2

[4] = cysteine reactivity assay (competitive fluorescence assay with probe 8); format: physicochemical; conditions: phosphate buffer (1×PBS) pH 7.5
Description: In order to study the kinetics of sulfonylpyrimidines reacting with free cysteine in solution, a strategy for a competitive fluorescence-based assay was adapted from previous works ([Epps and Taylor, 2001]; [Sameshima et al., 2017]). […] The reaction of probe 8 with cysteine liberates 4-methylumbelliferone as a fluorometrically detectable product (Figure 7A), and thus, the fluorescence increase can be described by the second-order rate constant k probe (Equation 1).
Upon the addition of competitive and irreversible cysteine modifiers such as sulfonylpyrimidines, the fluorescence increase of the probe reaction was hyperbolically attenuated (Figure 7B). According to the conceptual deduction described previously ([Epps and Taylor, 2001]; [Sameshima et al., 2017]), the experimental fluorescence curves can be analyzed by nonlinear regression as first-order reaction progress curves (Equation 2). The parameter k obs describes the curvature corresponding to the sum of the competing kinetics (Equation 3). Under the assumptions that 1) the competitive reaction between sulfonylpyrimidines vs. probe with cysteine is started by simultaneous addition, and 2) sulfonylpyrimidines are added at a much higher concentration than cysteine (5 µM) and the probe (5 µM), the k obs values depend substantially on the k chem value. The compound-specific second-order inactivation parameter k chem can be determined by linear regression from the k obs values of the dilution series (Equation 4). d[FL]/dt=kprobe[Cys][probe] (1) FL=[Cys]total⋅kprobe [probe]/kprobe [probe] + kchem [sulfonylpyrimidine](1−e^−kobs⋅t) (2) kobs=kchem [sulfonylpyrimidine]+kprobe [probe] (3) kchem=kobs/[sulfonylpyrimidine] (4)
Kinetic characterization of the reaction between sulfonylpyrimidines and cysteine was performed in degassed phosphate buffer (1×PBS, pH 7.5) or individual cases in bicarbonate buffer (20 mM NaHCO3, 100 mM NaCl, pH 7.5). Three technical replicates were carried out for each sulfonylpyrimidine in black flat-bottom 96-well plates. For this purpose, 50 µL buffered solution (including 5% (v/v) DMSO) of the respective sulfonylpyrimidine derivative (final: 250–3 µM) and the cysteine reactive probe 8 (final: 5 µM) were premixed. Reactions were initiated by the addition of 50 µL cysteine (final: 5 µM), dissolved in the respective buffer, and monitored for 30 min at 30°C in an Infinite M200 Pro plate reader with λex 380 nm/λem 460 nm. To calculate k obs and k chem values, fluorescence curves were fitted using the same non-linear regression as for in vitro inhibition of SrtA ([Barthels et al., 2020]).

T1 sequence (Q2FV99 60-206): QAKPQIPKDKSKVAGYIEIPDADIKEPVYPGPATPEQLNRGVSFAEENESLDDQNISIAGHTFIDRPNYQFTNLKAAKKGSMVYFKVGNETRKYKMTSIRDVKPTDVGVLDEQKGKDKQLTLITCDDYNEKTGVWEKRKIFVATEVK
T5 sequence (Q95PM0 entry or part of it): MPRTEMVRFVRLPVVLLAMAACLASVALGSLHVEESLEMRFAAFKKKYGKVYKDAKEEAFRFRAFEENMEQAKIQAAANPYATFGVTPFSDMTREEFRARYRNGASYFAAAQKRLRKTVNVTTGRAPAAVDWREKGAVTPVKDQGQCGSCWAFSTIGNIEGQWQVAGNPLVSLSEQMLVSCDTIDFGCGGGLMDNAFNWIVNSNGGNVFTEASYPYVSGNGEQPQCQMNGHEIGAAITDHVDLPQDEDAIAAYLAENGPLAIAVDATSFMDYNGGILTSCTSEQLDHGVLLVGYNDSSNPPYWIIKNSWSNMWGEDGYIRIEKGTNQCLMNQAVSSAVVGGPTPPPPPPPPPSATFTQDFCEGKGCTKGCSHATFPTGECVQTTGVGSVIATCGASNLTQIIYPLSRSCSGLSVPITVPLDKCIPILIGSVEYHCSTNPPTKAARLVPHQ
Chain of DENV NS2B/NS3 protease (P29990 1398-1437): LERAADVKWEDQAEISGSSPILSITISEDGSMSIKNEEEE
Chain of DENV NS2B/NS3 protease (P29990 1476-1653): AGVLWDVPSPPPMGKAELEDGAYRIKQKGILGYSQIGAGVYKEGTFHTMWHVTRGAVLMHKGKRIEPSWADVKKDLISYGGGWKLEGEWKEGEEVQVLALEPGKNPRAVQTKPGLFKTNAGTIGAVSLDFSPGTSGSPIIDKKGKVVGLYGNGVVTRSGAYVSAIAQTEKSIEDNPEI
T3 sequence (P07711 114-333): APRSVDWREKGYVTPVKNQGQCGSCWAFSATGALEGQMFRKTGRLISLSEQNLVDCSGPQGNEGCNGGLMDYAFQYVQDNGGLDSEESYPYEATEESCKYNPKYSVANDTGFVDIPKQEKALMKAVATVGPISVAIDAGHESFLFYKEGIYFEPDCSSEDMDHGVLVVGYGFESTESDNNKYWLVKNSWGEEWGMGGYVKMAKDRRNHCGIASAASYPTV
T4 sequence (Q32ZE1 1499-1676): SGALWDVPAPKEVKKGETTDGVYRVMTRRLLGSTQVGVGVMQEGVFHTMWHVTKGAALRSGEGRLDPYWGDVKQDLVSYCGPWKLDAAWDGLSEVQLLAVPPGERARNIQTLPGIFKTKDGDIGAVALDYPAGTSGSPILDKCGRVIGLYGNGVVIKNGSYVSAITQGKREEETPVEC
T4 sequence (Q32ZE1 1421-1460): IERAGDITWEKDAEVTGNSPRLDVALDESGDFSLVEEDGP

Row | SMILES | melting point | k inact (S. aureus SrtA) | k 2nd (S. aureus SrtA) | SrtA inhibition (in words) (S. aureus SrtA) | other results
1 | CS(=O)(=O)c1ncc(Cl)c(C(=O)NCC(=O)Nc2cccc(Oc3ccccc3)c2)n1 [Compound 5b] | 91 °C | 0.00082 ± 0.00004 s⁻¹ | 1,175 M^−1min^−1 and 1,175 ± 67 M^−1min^−1 | – | KI (inactivation) (S. aureus SrtA): 42.4 ± 4.62 µM
2 | CS(=O)(=O)c1nc(Cl)cc(NC(=O)c2ccccc2Oc2ccccc2)n1 [Compound 6i] | 184 °C | – | – | complete loss of inhibition | inhibition at 100 µM [1]: 9.5%; inhibition at 100 µM [2]: 59.4%; inhibition at 100 µM (cathepsin L (hCatL)): 21.3%; inhibition at 100 µM (S. aureus SrtA): 36%; inhibition at 100 µM [3]: 29.3%; inhibition at 100 µM (DENV NS2B/NS3 protease): 15%; inhibition at 100 µM (T. brucei rhodesain (Rd)): 9.2%; Cysteine k chem [4]: 0 M⁻¹ s⁻¹
3 | CS(=O)(=O)c1ncc(Cl)c(C(=O)Nc2cccc(Cc3ccccc3)c2)n1 [Compound 6d] | 148 °C | 0.00618 ± 0.00025 s⁻¹ | 6,181 ± 489 M^−1min^−1 | – | KI (inactivation) (S. aureus SrtA): 60.3 ± 6.4 µM
4 | CS(=O)(=O)c1ncc(Cl)c(C(=O)Nc2cccc(OCc3ccccc3)c2)n1 [Compound 6k] | 154 °C | n. i. | n. i. | inhibition was completely abolished | –
5 | CS(=O)(=O)c1ncc(Cl)c(C(=O)Nc2ccccc2Oc2ccccc2)n1 [Compound 6g] | 177 °C | – | – | complete abolition of inhibition | inhibition at 100 µM [1]: 11.8%; inhibition at 100 µM [2]: 67%; inhibition at 100 µM (cathepsin L (hCatL)): 29.4%; inhibition at 100 µM (S. aureus SrtA): 21.8%; inhibition at 100 µM [3]: 18.3%; inhibition at 100 µM (DENV NS2B/NS3 protease): 2.6%; inhibition at 100 µM (T. brucei rhodesain (Rd)): 15%
6 | CCC(CC)NC(=O)c1nc(S(C)(=O)=O)ncc1Cl [Compound 5i] | 146 °C | n. i. | n. i. | – | –
7 | CS(=O)(=O)c1ncc(Cl)c(C(=O)N2CCc3ccccc3C2)n1 [Compound 5h] | 218 °C | n. i. | n. i. | – | –
8 | CS(=O)(=O)c1ncc(Cl)c(C(=O)N(Cc2ccccc2)Cc2ccccc2)n1 [Compound 5k] | 68 °C | n. i. | n. i. | – | –
9 | COc1cccc(NC(=O)c2nc(S(C)(=O)=O)ncc2Cl)c1 [Compound 6e] | – | – | 882 M⁻¹ min⁻¹ and 882 ± 43 M⁻¹ min⁻¹ | – | Ki (S. aureus SrtA): > 100 µM
10 | CS(=O)(=O)c1ncc(Cl)c(C(=O)Nc2ccc(-c3ccc(C#N)cc3)cc2)n1 [Compound 5d] | 267 °C | n. i. | n. i. | – | –
11 | Cc1cnc(S(C)(=O)=O)nc1C(=O)Nc1cccc(Oc2ccccc2)c1 [Compound 7d] | 164 °C | – | 1,204 ± 139 M^−1min^−1 | – | S. I. (k 2nd/k chem) (S. aureus SrtA; SrtA k 2nd over cysteine k chem): 196; Cysteine k chem [4]: 0.102 ± 0.0285 M⁻¹ s⁻¹
12 | CS(=O)(=O)c1ncc(Cl)c(C(=O)Nc2ccc3c(c2)oc2ccccc23)n1 [Compound 6l] | 250 °C | n. i. | n. i. | complete loss of inhibition | –
13 | CS(=O)(=O)c1ncc(Cl)c(C(=O)Nc2cccc(-c3ccccc3)c2)n1 [Compound 6f] | 164 °C | – | 588 M⁻¹ min⁻¹ and 588 ± 48 M⁻¹ min⁻¹ | – | Ki (S. aureus SrtA): > 100 µM
14 | CS(=O)(=O)c1ncc(Cl)c(C(=O)Nc2cccc(OC3CCCCC3)c2)n1 [Compound 6c] | 144 °C | 0.00864 ± 0.00092 s⁻¹ | 6,593 M^−1min^−1 and 6,593 ± 243 M^−1min^−1 | – | KI (inactivation) (S. aureus SrtA): 78.8 ± 9.92 µM
15 | CS(=O)(=O)c1ncc(Cl)c(C(=O)Nc2cccc(C(=O)Nc3ccccc3)c2)n1 [Compound 6m] | 237 °C | n. i. | n. i. | inhibition was completely abolished | –
16 | CS(=O)(=O)c1ncc(Cl)c(C(=O)Nc2cccc(Sc3ccccc3)c2)n1 [Compound 6b] | 135 °C | 0.00578 ± 0.00033 s⁻¹ | 7,305 ± 294 M^−1min^−1 | – | KI (inactivation) (S. aureus SrtA): 47.5 ± 4.62 µM
17 | CS(=O)(=O)c1ncc(Cl)c(C(=O)Nc2ccc3[nH]ncc3c2)n1 [Compound 5f] | 231 °C | n. i. | n. i. | – | –
18 | CS(=O)(=O)c1ncc(Cl)c(C(=O)NCCSc2ccccc2)n1 [Compound 6n] | – | n. i. | n. i. | complete loss of inhibition | –
19 | CS(=O)(=O)c1ncc(Cl)c(C(=O)Nc2ccc(Oc3ccccc3)cc2)n1 [Compound 6h] | 195 °C | n. i. | n. i. | complete abolition of inhibition | –
20 | Cc1ccc(-c2csc(NC(=O)c3nc(S(C)(=O)=O)ncc3Cl)n2)cc1 [Compound 5g] | 280 °C | n. i. | n. i. | – | –
